Measured values: patent EP4700040A1, “PEPTIDE AND LUMINESCENT COMPLEX CONTAINING SAME” (Shenzhen Loggene Life Science & Technology Co., Ltd., priority 2023, dated 2024)

Experiments:
Format in all cases: biochemical, human
PCT [1] = test: Sensitivity and linear range for PCT detection of preferred small subunits (Example 5); conditions: for luminescence value: normalized; for Signal-to-noise ratio at 1000 pg/ml: large subunit 8.3~25 nM, small subunit fusion 30~180 nM, CTZ-h 15 µM
Experimental: Detection Methods: • (1) The concentration of large subunit-rSCFV5 fusion protein was diluted with PBSA to 8.3~25nM, and 15µl was added per well; • (2) MBP-PCT fusion proteins were diluted with PBSAD in a downward gradient starting from 2.5 µg/ml, and 10 µl was added per well; • (3) The rSCFV18-small subunit mutant-containing fusion protein was diluted with PBSA to 30~180 nM, and 15 µl was added per well; • (4) The above three components were slightly mixed, incubated at 37°C for 15 min, and Obuffer 6.37-3 containing CTZ-h at a concentration of 15 µM was added, and the luminescence signal value was immediately detected using a bioluminescence detector (the luminescence value was normalized);

PCT [2] = test: Second library screening for PCT detection, clone supernatants, retest with CTZ-h (Example 4); conditions: for Signal-to-noise ratio: PCT+/PCT-, MBP-PCT 3.3 ng/ml, CTZ-h; for PCT+: luminescence signal value with MBP-PCT 3.3 ng/ml; for PCT+ / PCT-: large subunit-rSCFV5 12.5 nM, CTZ-h 25 µM, 60 s; for PCT-: luminescence signal value, PBSAD control without PCT
Experimental: In order to further improve the signal-to-noise ratio and complementary activity of the luciferase dual-antibody complementary activation assay, novel complementary luciferase small subunits were prepared in this example. Large subunit-rSCFV5 fusion protein (SEQ ID NO: 87) was kept unchanged, and the small subunit sequence of the rSCFV18-RB073 fusion protein (SEQ ID NO: 89) were modified by semi-randomization. The theoretical diversity was 6912, the library capacity was 10^6, and 3,000 single clones were picked. The method of protein induction and expression was the same as that in Example 2.
Detection Methods: • (1) The concentration of large subunit-rSCFV5 fusion protein was diluted to 12.5 nM, and 15 µl was added per well; • (2) MBP-PCT fusion protein was diluted to 3.3 ng/ml with PBSAD, and 10 µl was added per well; • (3) HB2151 strain containing plasmids with different small subunit sequences were induced by IPTG at 30°C overnight, then treated with polymyxin B for 1.5h, and centrifuged to collect the supernatant, and 2.5µl supernatant was added per well; • (4) The above three components were slightly mixed, incubated at 37°C for 7 min, and Obuffer 6.37-3 containing Furimazine at a concentration of 25 µM was added, and after 3 min, the luminescence signal value was detected using a bioluminescence detector; and • (5) Clones with RLU higher than 10,000 were picked. The substrate was replaced with CTZ-h substrate for retesting (Obuffer 6.37-3 containing CTZ-h at a concentration of 25 µM was added, and after 60 s, the luminescence signal value was detected using a bioluminescence detector), and a PBSAD control was added to test the signal-to-noise ratio.

PCT [3] = test: Luciferase dual-antibody complementary activation assay for PCT detection, clone supernatants, retest with CTZ-h (Example 1); conditions: for Signal-to-noise ratio: RLU antigen+/RLU antigen-, MBP-PCT 3.3 ng/ml, CTZ-h; for PCT+: luminescence signal value with MBP-PCT 3.3 ng/ml, large subunit-rSCFV5 50 nM, supernatant; for PCT+ / PCT-: retest CTZ-h 25 µM, read after 60 s; for PCT-: luminescence signal value, background control PBSAD without PCT
Experimental: In order to improve the signal-to-noise ratio and complementary activity of the luciferase dual-antibody complementary activation assay, a series of complementary luciferase small subunits were prepared in this example. Large subunit-rSCFV5 fusion protein (SEQ ID NO: 87) was kept unchanged, and the small subunit sequence of the rSCFV18-small subunit P114 fusion protein (SEQ ID NO: 88) was modified by semi-randomization to prepare rSCFV18-small subunit mutant fusion proteins. Based on the sequence of small subunit P114, and with reference to the 3D structure of complementary luciferase, computer-aided sequence design was employed to generate a library with a theoretical diversity of 2.49*10^6. Primers were designed for PCR amplification using the plasmid pComb3x of rSCFV18-small subunit P114 fusion protein as a template. Subsequently, an expression vector library was constructed by means of restriction digestion and ligation (SfiI, NheI), and a semi-random amino acid mutation library was introduced into the small subunit position and transformed into HB2151 competent cells, yielding a library capacity of 7.6*10^9. The 100 plates were spread, and 9,500 single clones were picked and inoculated into 600 µL of 2YTA medium, followed by incubation at 37°C with shaking at 250 rpm for 2 h. When the bacterial density reached approximately OD600 = 0.6~1.0, IPTG was then added to a final concentration of 1 mM, and the culture was further incubated at 30°C with shaking at 250 rpm for 20 h. The next day, the bacteria were collected by centrifugation at 4°C, 4,500g for 10min. The supernatant was discarded, and the precipitate was resuspended with 200µl of PBS containing polymyxin B at a final concentration of 20,000 u/ml. The suspension was incubated at room temperature with shaking at 100rpm for 1h, and then centrifuged at 4500g for 10min, and the supernatant was used for the test.
Test Methods: • (1) The concentration of large subunit-rSCFV5 fusion protein was diluted to 50 nM, and 15 µl was added per well; • (2) MBP-PCT fusion protein was diluted to 3.3 ng/ml with PBSAD, and 15 µl was added per well. The background control was PBSAD, and 10 µl was added per well; • (3) HB2151 strain containing expression plasmids with different small subunit were induced by 1 mM of IPTG at 30°C overnight, then treated with polymyxin B for 1.5 h, and centrifuged to collect the supernatant, and 2.5 µl supernatant was added per well; • (4) The above three components were slightly mixed, incubated at 37°C for 7 min, and Obuffer 6.37-3 containing Furimazine at a concentration of 25 µM was added, and after 80 s, the luminescence signal value was detected using a bioluminescence detector; and • (5) Clones with RLU higher than 10,000 and a signal-to-noise ratio (RLU antigen+/RLU antigen-) higher than that of the rSCFV18-small subunit P114 fusion protein were selected for retesting. The substrate was replaced with CTZ-h for retesting. Obuffer 6.37-3 containing CTZ-h at a concentration of 25 µM was added, and after 60 s, the luminescence signal value was detected using a bioluminescence detector.

## VEGYRLFDKVS [RC-215]
PCT [1]; PCT 0.0, background
  luminescence value: 5000
PCT [1]; PCT 1 (pg/ml)
  luminescence value: 5095
PCT [1]; PCT 3 (pg/ml)
  luminescence value: 5206
PCT [1]; PCT 10 (pg/ml)
  luminescence value: 5458
PCT [1]; PCT 30 (pg/ml)
  luminescence value: 6156
PCT [1]; PCT 100 (pg/ml)
  luminescence value: 7892
PCT [1]; PCT 1000 (pg/ml)
  luminescence value: 35231
PCT [1]; PCT 10000 (pg/ml)
  luminescence value: 296125
PCT [1]; PCT 100000 (pg/ml)
  luminescence value: 1967363
PCT [1]; PCT 250000 (pg/ml)
  luminescence value: 2983773
PCT [1]
  Signal-to-noise ratio at 1000 pg/ml: 7.0
PCT [2]
  Signal-to-noise ratio: 11.2
  PCT+: 5972
  PCT-: 531

## VEGYRLFDRKL [RB209]
PCT [3]
  Signal-to-noise ratio: 33.6
  PCT+: 37398
  PCT-: 1080

## VEGYRLFDRKL [RB212]
PCT [3]
  Signal-to-noise ratio: 33.6
  PCT+: 33103
  PCT-: 957

## VEGYRLFDRKS [RC-218]
PCT [1]; PCT 0.0, background
  luminescence value: 5000
PCT [1]; PCT 1 (pg/ml)
  luminescence value: 4937
PCT [1]; PCT 3 (pg/ml)
  luminescence value: 4976
PCT [1]; PCT 10 (pg/ml)
  luminescence value: 5164
PCT [1]; PCT 30 (pg/ml)
  luminescence value: 5701
PCT [1]; PCT 100 (pg/ml)
  luminescence value: 7494
PCT [1]; PCT 1000 (pg/ml)
  luminescence value: 31585
PCT [1]; PCT 10000 (pg/ml)
  luminescence value: 266213
PCT [1]; PCT 100000 (pg/ml)
  luminescence value: 1757745
PCT [1]; PCT 250000 (pg/ml)
  luminescence value: 2436323
PCT [1]
  Signal-to-noise ratio at 1000 pg/ml: 6.3
PCT [2]
  Signal-to-noise ratio: 7.9
  PCT+: 7242
  PCT-: 921

## VEGYRLFDRKW [RB186]
PCT [3]
  Signal-to-noise ratio: 45.1
  PCT+: 27190
  PCT-: 590

## VEGYRLFDRVW [RB128]
PCT [3]
  Signal-to-noise ratio: 38.8
  PCT+: 26168
  PCT-: 658

## VEGYRLFEKKL [RB149]
PCT [3]
  Signal-to-noise ratio: 21
  PCT+: 79060
  PCT-: 3587

## VEGYRLFEKVW [RB172]
PCT [3]
  Signal-to-noise ratio: 36.9
  PCT+: 41446
  PCT-: 1094

## VEGYRLFERIW [RB113]
PCT [3]
  Signal-to-noise ratio: 31.3
  PCT+: 57092
  PCT-: 1769

## VEGYRLFERIW [RB240]
PCT [3]
  Signal-to-noise ratio: 35.3
  PCT+: 50183
  PCT-: 1384

## VEGYRLFERKL [RB157]
PCT [3]
  Signal-to-noise ratio: 25.2
  PCT+: 74319
  PCT-: 2837

## VEGYRLFERKS [RB033]
PCT [3]
  Signal-to-noise ratio: 25.7
  PCT+: 109352
  PCT-: 4101

## VEGYRLFERKS [RB097]
PCT [3]
  Signal-to-noise ratio: 21
  PCT+: 95553
  PCT-: 4346

## VEGYRLFERKW [RB035]
PCT [3]
  Signal-to-noise ratio: 31.6
  PCT+: 58318
  PCT-: 1790

## VEGYRLFERKW [RB276]
PCT [3]
  Signal-to-noise ratio: 35
  PCT+: 44654
  PCT-: 1242

## VEGYRLFERVL [RB150]
PCT [3]
  Signal-to-noise ratio: 32.1
  PCT+: 53945
  PCT-: 1630

## VSGYRLFDKKS [RC-187]
PCT [1]; PCT 0.0, background
  luminescence value: 5000
PCT [1]; PCT 1 (pg/ml)
  luminescence value: 4944
PCT [1]; PCT 3 (pg/ml)
  luminescence value: 4968
PCT [1]; PCT 10 (pg/ml)
  luminescence value: 5099
PCT [1]; PCT 30 (pg/ml)
  luminescence value: 5570
PCT [1]; PCT 100 (pg/ml)
  luminescence value: 7032
PCT [1]; PCT 1000 (pg/ml)
  luminescence value: 27642
PCT [1]; PCT 10000 (pg/ml)
  luminescence value: 214329
PCT [1]; PCT 100000 (pg/ml)
  luminescence value: 910908
PCT [1]; PCT 250000 (pg/ml)
  luminescence value: 1012760
PCT [1]
  Signal-to-noise ratio at 1000 pg/ml: 5.5
PCT [2]
  Signal-to-noise ratio: 7.9
  PCT+: 11049
  PCT-: 1405

## VSGYRLFDKKW [RC-099]
PCT [1]; PCT 0.0, background
  luminescence value: 5000
PCT [1]; PCT 1 (pg/ml)
  luminescence value: 5106
PCT [1]; PCT 3 (pg/ml)
  luminescence value: 5166
PCT [1]; PCT 10 (pg/ml)
  luminescence value: 5453
PCT [1]; PCT 30 (pg/ml)
  luminescence value: 5950
PCT [1]; PCT 100 (pg/ml)
  luminescence value: 7470
PCT [1]; PCT 1000 (pg/ml)
  luminescence value: 28688
PCT [1]; PCT 10000 (pg/ml)
  luminescence value: 243815
PCT [1]; PCT 100000 (pg/ml)
  luminescence value: 1744023
PCT [1]; PCT 250000 (pg/ml)
  luminescence value: 2942238
PCT [1]
  Signal-to-noise ratio at 1000 pg/ml: 5.7
PCT [2]
  Signal-to-noise ratio: 7.0
  PCT+: 8149
  PCT-: 1164

## VSGYRLFDKVS [RC-178]
PCT [1]; PCT 0.0, background
  luminescence value: 5000
PCT [1]; PCT 1 (pg/ml)
  luminescence value: 4911
PCT [1]; PCT 3 (pg/ml)
  luminescence value: 5152
PCT [1]; PCT 10 (pg/ml)
  luminescence value: 5180
PCT [1]; PCT 30 (pg/ml)
  luminescence value: 6047
PCT [1]; PCT 100 (pg/ml)
  luminescence value: 8378
PCT [1]; PCT 1000 (pg/ml)
  luminescence value: 41922
PCT [1]; PCT 10000 (pg/ml)
  luminescence value: 350855
PCT [1]; PCT 100000 (pg/ml)
  luminescence value: 1664322
PCT [1]; PCT 250000 (pg/ml)
  luminescence value: 1858964
PCT [1]
  Signal-to-noise ratio at 1000 pg/ml: 8.4
PCT [2]
  Signal-to-noise ratio: 9.6
  PCT+: 5708
  PCT-: 593
